Test results from patent publication US9090576B2, “2-substituted-p-quinone derivatives for treatment of oxidative stress diseases” (Edison Pharmaceuticals, Inc., priority 2008, dated 2015).
pEC50: −log10 of the molar value.

Experiments:
Assay type in all cases: cell-based
[1] = tested on: Human dermal fibroblasts from Friedreich's Ataxia patients; assay: Rescue of BSO-stressed FRDA fibroblasts (Calcein AM viability); conditions: BSO-stressed FRDA fibroblasts (GM04078), less than about 150 nM, read-out: EC50, protection against FRDA
Procedure, shortened: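 Patient FRDA fibroblasts (GM04078) seeded at 3,000 cells/well, given serially diluted compound from a 150 μM master solution, then stressed next day with 1 mM BSO.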

[2] = tested on: human dermal fibroblasts from Huntington's patients; assay: Rescue of BSO-stressed fibroblasts from Huntington's patients (screen as Example A); conditions: Fibroblast, BSO-stressed Huntington's fibroblasts (GM 04281), less than about 150 nM, read-out: EC50, protection against Huntington's
Procedure, shortened: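 Coriell Huntington's line GM 04281 plated at 3,000 cells/well and attached overnight at 37 °C. Survival was read by Calcein AM (1.2 μM, 50-70 min, RT) fluorescence at 485/525 nm, giving EC50.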

[3] = tested on: human dermal fibroblasts from LHON patients; assay: Rescue of BSO-stressed fibroblasts from LHON patients (screen as Example A); conditions: Fibroblast, BSO-stressed LHON fibroblasts (GM03858), less than about 150 nM, read-out: EC50, protection against LHON
Procedure, shortened: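 LHON patient fibroblasts (Coriell GM03858) at 3,000 cells/well were pre-treated overnight with compounds serially diluted from a 150 μM master solution. Surviving cells were stained with 1.2 μM Calcein AM for 50-70 min at RT and read by fluorescence (485/525 nm), giving EC50.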

[4] = tested on: human dermal fibroblasts from Parkinson's Disease patients; assay: Rescue of BSO-stressed fibroblasts from Parkinson's Disease patients (screen as Example A); conditions: Fibroblast, BSO-stressed Parkinson's Disease fibroblasts (AG20439), less than about 150 nM, read-out: EC50, protection against PD
Procedure, shortened: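 Dermal fibroblasts from a Parkinson's Disease patient (Coriell AG20439) were plated at 3,000 cells/well, attached overnight and pre-incubated overnight with serially diluted compounds (150 μM master solution). Survival was read by 1.2 μM calcein AM (50–70 min, RT, 485/525 nm fluorescence) and converted to EC50.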

[5] = tested on: human dermal fibroblasts from CoQ10 deficient patients; assay: Rescue of BSO-stressed fibroblasts from CoQ10 deficient patients (screen similar to Example A); conditions: Fibroblast, BSO-stressed fibroblasts from CoQ10 deficient patients harboring a CoQ2 mutation, less than about 150 nM, read-out: EC50, protection against CoQ10 deficiency
Protocol: A culture with FRDA fibroblasts was started from a 1 ml vial with approximately 500,000 cells stored in liquid nitrogen. Cells were propagated in 10 cm cell culture dishes by splitting every third day in a ratio of 1:3 until nine plates were available. Once confluent, fibroblasts were harvested. For 54 micro titer plates (96 well-MTP) a total of 14.3 million cells (passage eight) were re-suspended in 480 ml medium, corresponding to 100 μl medium with 3,000 cells/well. The remaining cells were distributed in 10 cm cell culture plates (500,000 cells/plate) for propagation. The plates were incubated overnight at 37° C. in an atmosphere with 95% humidity and 5% CO2 to allow attachment of the cells to the culture plate.
MTP medium (243 μl) was added to a well of the microtiter plate. The test compounds were unfrozen, and 7.5 μl of a 5 mM stock solution was dissolved in the well containing 243 μl medium, resulting in a 150 μM master solution. Serial dilutions from the master solution were made. The period between the single dilution steps was kept as short as possible (generally less than 1 second).
Plates were kept overnight in the cell culture incubator. The next day, 10 μl of a 10 mM BSO solution were added to the wells, resulting in a 1 mM final BSO concentration. Forty-eight hours later, three plates were examined under a phase-contrast microscope to verify that the cells in the 0% control (wells E1-H1) were clearly dead. The medium from all plates was discarded, and the remaining liquid was removed by gently tapping the plate inversed onto a paper towel.
100 μl of PBS containing 1.2 μM Calcein AM were then added to each well. The plates were incubated for 50-70 minutes at room temperature. After that time the PBS was discarded, the plate gently tapped on a paper towel and fluorescence (excitation/emission wavelengths of 485 nm and 525 nm, respectively) was read on a Gemini fluorescence reader. Data was imported into Microsoft Excel (EXCEL is a registered trademark of Microsoft Corporation for a spreadsheet program) and used to calculate the EC50 concentration for each compound.
Compounds of the invention were tested using a screen similar to the one described in Example A, but substituting FRDA cells with cells obtained from CoQ10 deficient patients harboring a CoQ2 mutation. The compounds were tested for their ability to rescue human dermal fibroblasts from CoQ10 deficient patients from oxidative stress.

Measured: pEC50

CC1=C(C)C(=O)C(CCCC(=O)N2CCc3ccccc3C2)=C(C)C1=O [2-(4-(3,4-dihydroisoquinolin-2(1H)-yl)-4-oxobutyl)-3,5,6-trimethylcyclohexa-2,5-diene-1,4-dione]
> 6.82: all assays above

CC1=C(C)C(=O)C(CCCC(=O)N2CCc3ccccc32)=C(C)C1=O [2-(4-(indolin-1-yl)-4-oxobutyl)-3,5,6-trimethylcyclohexa-2,5-diene-1,4-dione]
> 6.82: all assays above

CC1=C(C)C(=O)C(CCCC(=O)N2Cc3ccccc3C2)=C(C)C1=O [2-(4-(isoindolin-2-yl)-4-oxobutyl)-3,5,6-trimethylcyclohexa-2,5-diene-1,4-dione]
> 6.82: all assays above

CC1=C(C)C(=O)C(CCCC(N)=O)=C(C)C1=O [4-(2,4,5-trimethyl-3,6-dioxocyclohexa-1,4-dienyl)butanamide]
> 6.82: all assays above

CC1=C(C)C(=O)C(CCCC(=O)Nc2ccc(Cl)cc2N)=C(C)C1=O [N-(2-amino-4-chlorophenyl)-4-(2,4,5-trimethyl-3,6-dioxocyclohexa-1,4-dienyl)butanamide]
> 6.82: all assays above

CC1=C(C)C(=O)C(CCCC(=O)NCc2ccccc2Cl)=C(C)C1=O [N-(2-chlorobenzyl)-4-(2,4,5-trimethyl-3,6-dioxocyclohexa-1,4-dienyl)butanamide]
> 6.82: all assays above

CC1=C(C)C(=O)C(CCCC(=O)NCCc2ccccc2Cl)=C(C)C1=O [N-(2-chlorophenethyl)-4-(2,4,5-trimethyl-3,6-dioxocyclohexa-1,4-dienyl)butanamide]
> 6.82: all assays above

CC1=C(C)C(=O)C(CCCC(=O)Nc2ccccc2Cl)=C(C)C1=O [N-(2-chlorophenyl)-4-(2,4,5-trimethyl-3,6-dioxocyclohexa-1,4-dienyl)butanamide]
> 6.82: all assays above

CC1=C(C)C(=O)C(CCCC(=O)NCCc2ccccc2F)=C(C)C1=O [N-(2-fluorophenethyl)-4-(2,4,5-trimethyl-3,6-dioxocyclohexa-1,4-dienyl)butanamide]
> 6.82: all assays above

CC1=C(C)C(=O)C(CCCC(=O)Nc2ccccc2F)=C(C)C1=O [N-(2-fluorophenyl)-4-(2,4,5-trimethyl-3,6-dioxocyclohexa-1,4-dienyl)butanamide]
> 6.82: all assays above

COc1ccccc1NC(=O)CCCC1=C(C)C(=O)C(C)=C(C)C1=O [N-(2-methoxyphenyl)-4-(2,4,5-trimethyl-3,6-dioxocyclohexa-1,4-dienyl)butanamide]
> 6.82: all assays above

COc1ccc(NC(=O)CCCC2=C(C)C(=O)C(C)=C(C)C2=O)cc1OC [N-(3,4-dimethoxyphenyl)-4-(2,4,5-trimethyl-3,6-dioxocyclohexa-1,4-dienyl)butanamide]
> 6.82: all assays above

CC1=C(C)C(=O)C(CCCC(=O)Nc2cccc(Cl)c2)=C(C)C1=O [N-(3-chlorophenyl)-4-(2,4,5-trimethyl-3,6-dioxocyclohexa-1,4-dienyl)butanamide]
> 6.82: all assays above

CC1=C(C)C(=O)C(CCCC(=O)NCCc2cccc(F)c2)=C(C)C1=O [N-(3-fluorophenethyl)-4-(2,4,5-trimethyl-3,6-dioxocyclohexa-1,4-dienyl)butanamide]
> 6.82: all assays above

COc1cccc(NC(=O)CCCC2=C(C)C(=O)C(C)=C(C)C2=O)c1 [N-(3-methoxyphenyl)-4-(2,4,5-trimethyl-3,6-dioxocyclohexa-1,4-dienyl)butanamide]
> 6.82: all assays above

CC1=C(C)C(=O)C(CCCC(=O)Nc2ccc(C(F)(F)F)cc2)=C(C)C1=O [N-(4-(trifluoromethyl)phenyl)-4-(2,4,5-trimethyl-3,6-dioxocyclohexa-1,4-dienyl)butanamide]
> 6.82: all assays above

CC1=C(C)C(=O)C(CCCC(=O)NCc2ccc(Cl)cc2)=C(C)C1=O [N-(4-chlorobenzyl)-4-(2,4,5-trimethyl-3,6-dioxocyclohexa-1,4-dienyl)butanamide]
> 6.82: all assays above

CC1=C(C)C(=O)C(CCCC(=O)NCCc2ccc(Cl)cc2)=C(C)C1=O [N-(4-chlorophenethyl)-4-(2,4,5-trimethyl-3,6-dioxocyclohexa-1,4-dienyl)butanamide]
> 6.82: all assays above

CC1=C(C)C(=O)C(CCCC(=O)N(C)c2ccc(Cl)cc2)=C(C)C1=O [N-(4-chlorophenyl)-N-methyl-4-(2,4,5-trimethyl-3,6-dioxocyclohexa-1,4-dienyl)butanamide]
> 6.82: all assays above
